Experimental data taken from patent US11433053B2, “LSD1 inhibitor and preparation method and application thereof” (CSPC ZHONGQI PHARMACEUTICAL TECHNOLOGY (SHIJIAZHUANG) CO., …, priority 2017, dated 2022).

What was measured:
H1417 cells = assay: Cell proliferation inhibitory activity on H1417 cells (CellTiter-Glo, 10 days); format: cell-based, human; settings: for IC50: 10 days incubation; for Emax: NCI-H1417, H1417 cells, read-out: Maximum inhibition percentage (%)
Method: Experimental purposes: To test the proliferation inhibitory activities of the test compounds on H1417 cells.
Experimental materials: RPMI 1640 medium, fetal bovine serum, Promega CellTiter-Glo reagent. The H1417 cell line purchased from ATCC. Envision Multi-Label Analyzer (PerkinElmer).
Experimental method: H1417 cells were seeded in a black 384-well plate, 1000 cells per well in […] of cell suspension. The test compounds were diluted 3-fold with Epmotion to the 10th concentration i.e, the compounds were diluted from 10 mmol to […], and a double duplicate well experiment was set. 198 μL medium was added to the middle plate, according to the corresponding position, 2 μL gradient diluted compounds were added to the middle plate. The mixture was mixed evenly and transferred 20 μL per well to the cell plates. The cell plates were incubated in a carbon dioxide incubator for 10 days. 25 μL of Promega CellTiter-Glo reagent per well was added to the cell plate and the mixture was incubated for 10 minutes at room temperature to stabilize the luminescence signal. Readings were performed by PerkinElmer Envision multi-label analyzer.
Data analysis: The original data was converted to the inhibition rate by the equation (Max-Ratio)/(Max-Min)*100%, and the value of IC50 can be obtained by curve fitting with four parameters. (Model 205 in XLFIT5, iDBS)
The growth inhibitory activities of the test compounds on H1417 cells were classified as + for IC50≤100 nM; ++ for IC50>100 nM and ≤500 nM; +++ for IC50>500 nM and ≤1000 nM; the highest percentage inhibition of cell viability was classified as: […]; 90%>B≥70%; 70%>C≥50%.

human LSD1 = human LSD1 (Homo sapiens (Human), UniProt O60341); assay: Evaluation of enzyme activity: LSD1 fluorescence coupling enzyme assay (HRP/Amplex Red); format: biochemical; settings: human LSD1, histone H3(1-21)K4me2 peptide 10 μM, 30 min pre-incubation
Method: The purpose of this test is to test the in vitro inhibitory activities of the compounds against LSD1. The enzyme used in this experiment was human LSD1, and the standard substrate was histone H3(1-21)K4me2 peptide (10 μM). HCI-2509 (SP2509) was used as reference compound, and the fluorescence coupling enzyme assay was employed. The production of FAD-dependent H2O2 as a result of demethylase activity of LSD1 was measured by coupling with HRP and Amplex Red. Compounds as well as control compound HCl-2509 were tested in 10-dose IC50 mode with a 3-fold serial dilution in duplicate starting at 10 μm. All compounds were pre-incubated 30 mins with enzyme before added substrate to start reaction. Fluorescence measurement: Ex/Em=535/590 by EnVision.
The test compound's inhibitory activities against LSD11 was classified as: + for IC50≤50 nM; ++ for IC50>50 nM and ≤100 nM; +++ for IC50>100 nM and ≤500 nM, and the results are shown in Table 1.

[1] = Homo sapiens, NCI-H1417, 240 h, H1417 cells
[2] = Homo sapiens, highest percentage inhibition of cell viability

| SMILES | IC50 (H1417 cells; [1]) [nM] | Emax (H1417 cells; [2]) [%] | IC50 (human LSD1) [nM] | IC50 (H1417 cells; H1417 cells) [nM] | Maximum inhibition percentage (%) (H1417 cells; H1417 cells, highest percentage inhibition of cell viability) |
| --- | --- | --- | --- | --- | --- |
| N#CC1(CN[C@H]2CC2c2ccccc2)CC1 (stereo partly drawn) [Example 1] | ≤ 100 | 90 to 100 | 100 to 500 | – | – |
| NCC1(CN[C@H]2CC2c2ccccc2)CC1 (stereo partly drawn) [Example 4] | ≤ 100 | 50 to 70 | ≤ 50 | – | – |
| CCNCC1(CN[C@H]2CC2c2ccccc2)CC1 (stereo partly drawn) [Example 6] | 500 to 1000 | 50 to 70 | 100 to 500 | – | – |
| N#CC1(CN[C@H]2CC2c2ccccc2)CCC1 (stereo partly drawn) [Example 8] | 100 to 500 | 50 to 70 | 50 to 100 | – | – |
| NCC1(CN[C@H]2CC2c2ccccc2)CCC1 (stereo partly drawn) [Example 9] | ≤ 100 | 70 to 90 | ≤ 50 | – | – |
| Clc1ccc(-c2noc(C3(CN[C@H]4CC4c4ccccc4)CC3)n2)cc1 (stereo partly drawn) [Example 69] | 500 to 1000 | 50 to 70 | ≤ 50 | – | – |
| Clc1ccc(-c2nnc(C3(CN[C@H]4CC4c4ccccc4)CC3)o2)cc1 (stereo partly drawn) [Example 70] | 100 to 500 | 90 to 100 | ≤ 50 | – | – |
| CC(C)Oc1ccc(-c2nc(C3(CN[C@H]4CC4c4ccccc4)CCC3)no2)cc1 (stereo partly drawn) [Example 87] | 100 to 500 | 50 to 70 | ≤ 50 | – | – |
| FC(F)(F)Oc1ccc(-c2nc(C3(CN[C@H]4CC4c4ccccc4)CCC3)no2)cc1 (stereo partly drawn) [Example 88] | 100 to 500 | 50 to 70 | ≤ 50 | – | – |
| FC(F)Oc1ccc(-c2nc(C3(CN[C@H]4CC4c4ccccc4)CCC3)no2)cc1 (stereo partly drawn) [Example 89] | 100 to 500 | 50 to 70 | ≤ 50 | – | – |
| NC(=O)c1ccc(-c2nc(C3(CN[C@H]4CC4c4ccccc4)CCC3)no2)cc1 (stereo partly drawn) [Example 95] | ≤ 100 | 50 to 70 | ≤ 50 | – | – |
| N#Cc1ccc2c(c1)CN(CC1(CN[C@H]3CC3c3ccccc3)CC1)C2 (stereo partly drawn) [Example 100] | 100 to 500 | 50 to 70 | ≤ 50 | – | – |
| CN(C)[C@H]1CC[C@@H](c2nc(C3(CN[C@@H]4C[C@H]4c4ccccc4)CC3)no2)CC1 [Example 116] | 100 to 500 | 70 to 90 | ≤ 50 | – | – |
| O=C(N[C@H]1CC[C@@H](c2nc(C3(CN[C@@H]4C[C@H]4c4ccccc4)CC3)no2)CC1)C1CC1 [Example 117] | 100 to 500 | 70 to 90 | ≤ 50 | – | – |
| c1ccc(C2C[C@@H]2NCC2(c3noc(-c4ccc5scnc5c4)n3)CCC2)cc1 (stereo partly drawn) [Example 127] | 100 to 500 | 50 to 70 | ≤ 50 | – | – |
| COc1ccc(-c2nc(C3(CN[C@H]4CC4c4ccccc4)CCC3)no2)cn1 (stereo partly drawn) [Example 129] | 100 to 500 | 50 to 70 | ≤ 50 | – | – |
| FC(F)(F)c1ccc(-c2nc(C3(CN[C@H]4CC4c4ccccc4)CCC3)no2)cc1 (stereo partly drawn) [Example 132] | 100 to 500 | 50 to 70 | ≤ 50 | – | – |
| N[C@H]1CC[C@@H](c2nc(C3(CN[C@@H]4C[C@H]4c4ccccc4)CC3)no2)C1 [Example 147] | 500 to 1000 | 90 to 100 | ≤ 50 | – | – |
| O=C(O)[C@H]1C[C@H](c2nc(C3(CN[C@@H]4C[C@H]4c4ccccc4)CC3)no2)C1 [Example 149] | – | – | 50 to 100 | 500 to 1000 | C (70%>C≥50%) |

| SMILES | IC50 (H1417 cells; [1]) [nM] | Emax (H1417 cells; [2]) [%] | IC50 (human LSD1) [nM] | IC50 (H1417 cells; H1417 cells) [nM] | Maximum inhibition percentage (%) (H1417 cells; H1417 cells, highest percentage inhibition of cell viability) |
| --- | --- | --- | --- | --- | --- |
| N[C@@H](CCc1nc(C2(CN[C@@H]3C[C@H]3c3ccccc3)CC2)no1)C(=O)O [Example 153] | 500 to 1000 | 90 to 100 | 100 to 500 | – | – |
| c1ccc([C@@H]2C[C@H]2NCC2(c3noc([C@H]4C[C@H]5CNC[C@H]5C4)n3)CC2)cc1 [Example 156] | 100 to 500 | 70 to 90 | 50 to 100 | – | – |
| c1ccc([C@@H]2C[C@H]2NCC2(c3noc([C@@H]4C[C@H]5CNC[C@H]5C4)n3)CC2)cc1 [Example 157] | 500 to 1000 | 70 to 90 | 50 to 100 | – | – |
| c1ccc([C@@H]2C[C@H]2NCC2(c3noc(C4CCC5(CC4)CNC5)n3)CC2)cc1 [Example 158] | 500 to 1000 | 90 to 100 | ≤ 50 | – | – |
| NC1CCN(c2nc(C3(CN[C@@H]4C[C@H]4c4ccccc4)CC3)no2)CC1 [Example 159] | 100 to 500 | 90 to 100 | 50 to 100 | – | – |
| c1ccc(C2C[C@@H]2NCC2(c3noc(C4CCc5nc[nH]c5C4)n3)CC2)cc1 (stereo partly drawn) [Example 161] | 100 to 500 | 70 to 90 | ≤ 50 | – | – |
| c1ccc(C2C[C@@H]2NCC2(c3noc(-c4cn5c(n4)CCCC5)n3)CC2)cc1 (stereo partly drawn) [Example 162] | 500 to 1000 | 90 to 100 | ≤ 50 | – | – |
| c1ccc(C2C[C@@H]2NCC2(c3noc(CC4CCNCC4)n3)CC2)cc1 (stereo partly drawn) [Example 163] | 100 to 500 | 70 to 90 | 100 to 500 | – | – |
| COC(=O)[C@H]1CC[C@H](c2nc(C3(CN[C@@H]4C[C@H]4c4ccccc4)CC3)no2)CC1 [Example 171] | 100 to 500 | 50 to 70 | ≤ 50 | – | – |
| O=C(O)[C@H]1CC[C@@H](c2nc(C3(CN[C@H]4CC4c4ccccc4)CC3)no2)C1 (stereo partly drawn) [Example 174] | 500 to 1000 | 50 to 70 | 100 to 500 | – | – |
| O=C(O)[C@@H]1CC[C@H](c2nc(C3(CN[C@H]4CC4c4ccccc4)CC3)no2)C1 (stereo partly drawn) [Example 178] | 500 to 1000 | 70 to 90 | 100 to 500 | – | – |
| NC(=O)c1ccc(-c2nc(C3(CN[C@H]4CC4c4ccccc4)CC3)no2)cc1 (stereo partly drawn) [Example 182] | 500 to 1000 | 90 to 100 | ≤ 50 | – | – |
| CN(C)C(=O)c1ccc(-c2nc(C3(CN[C@H]4CC4c4ccccc4)CC3)no2)cc1 (stereo partly drawn) [Example 183] | 500 to 1000 | 90 to 100 | ≤ 50 | – | – |
| O=C(NC1CC1)c1ccc(-c2nc(C3(CN[C@H]4CC4c4ccccc4)CC3)no2)cc1 (stereo partly drawn) [Example 184] | 100 to 500 | 90 to 100 | ≤ 50 | – | – |
| N#Cc1ccc(-c2nc(C3(CN[C@H]4CC4c4ccccc4)CCC3)no2)cc1 (stereo partly drawn) [Example 192] | 100 to 500 | 50 to 70 | ≤ 50 | – | – |
| N#Cc1ccc(-c2nc(C3(CN[C@H]4CC4c4ccccc4)CCC3)no2)c(F)c1 (stereo partly drawn) [Example 193] | 100 to 500 | 50 to 70 | ≤ 50 | – | – |
| NC1CCC(NCC2(CN[C@H]3CC3c3ccccc3)CC2)CC1 (stereo partly drawn) [Example 195] | 100 to 500 | 50 to 70 | ≤ 50 | – | – |
| c1ccc(C2C[C@@H]2NCC2(CN[C@@H]3CC3c3ccccc3)CC2)cc1 (stereo partly drawn) [Example 198] | 100 to 500 | 50 to 70 | ≤ 50 | – | – |
| NC1(CN[C@H]2CC2c2ccccc2)CC1 (stereo partly drawn) [Example 199] | 500 to 1000 | 70 to 90 | 50 to 100 | – | – |
